# Reference: patent US7195783B2, “Hypericin and hypericum extract: specific T-type calcium channel blocker, and their use as T-type calcium channel targeted therapeutics” (FX Life Sciences International GmbH, priority 1999, dated 2007)
# “Also recorded” adds a separate entry of the source.
# What was measured:
# L-type calcium current [1] = test: L-type calcium current in ventricular cells from baby rats; assay type: cell-based; conditions: ventricular cells from baby rats (FIG. 7)
# L-type calcium current [2] = test: L-type calcium current in vascular smooth muscle cells (VSMC); assay type: cell-based; conditions: vascular smooth muscle cells (FIG. 6)
# T-type calcium channel = test: Whole-cell patch-clamp, T-type calcium current in N1E-115 cells; assay type: cell-based, Mouse; conditions: for effect on T-type calcium current: hypericin 0.1 to 10 uM (FIG. 3)
# Description: (§1) Mouse neuroblastoma cells (N1E115) were cultured in Dulbecco's modified Eagle's medium (GIBCO) containing 10% fetal bovine serum at 37° C. in a humidified atmosphere of 5% CO2 in air. The medium was changed every 3–4 days. After mechanical agitation, 3×10^4 cells were replanted in 35 mm tissue culture dishes containing 4 ml of bath solution. After cell attachment, the dish was mounted on the stage of an inverted phase-contrast microscope (Nikon) for Ca^2+ channel current recording. These cells expressed predominately T channel currents. In experiments where L channels were specifically sought, the cells were grown and maintained at confluence for 3–4 weeks under the same culture conditions with the addition of 2% (vol/vol) dimethyl sulfoxide. Three to five days before use, the cells were replanted with the same medium. These cells expressed predominately L channel currents. A small number of these cells also expressed T channel currents.
# The whole-cell version of the patch-clamp technique was used. The pipettes had resistance of 2–15 M. Membrane current recordings were made with an Axopatch-1C (Axon Instruments) patch-clamp amplifier. All signals were filtered at 1 kHz and stored in the computer. Since the peak currents measured with 20 mM Ba^2+ as the charge carrier were usually small (about 200 pA), the series resistance compensation was not usually employed. If the capacitive transient overlapped with the onset of the inward current, or if the spatial voltage control was inadequate (i.e., NIE-115 cells with long neural outgrowths), the experimental data were rejected. Unless otherwise specified the current-voltage plots were constructed by using the peak values (corrected for leakage) from the original records for both T and L channel currents. The holding membrane potential was fixed at −80 mV when the T channels were under investigation or at […] when the L channels were studied. […] For every single-cell recording, stable readings were first obtained for 5 min; the drug was then added to the bath solution. […]
# L-type calcium channels = test: Whole-cell patch-clamp, L-type calcium current in cultured N1E-115 neuroblastoma cells; assay type: cell-based, Mouse; conditions: cultured N1E-115 cells; hypericin 0.1, 1 and 10 uM (FIG. 1)
# Description: as §1
# The whole-cell version of the patch-clamp technique was used. […] Since the peak currents measured with 20 mM Ba^2+ as the charge carrier were usually small (about 200 pA), the series resistance compensation was not usually employed. […] For every single-cell recording, stable readings were first obtained for 5 min; the drug was then added to the bath solution. […]
substance,measurement,setting,value
hypericin,effect on L-type calcium current,L-type calcium current [1],did not affect
same,effect on L-type calcium current,L-type calcium current [2],did not affect
same,inhibition on T-type calcium current,T-type calcium channel; 0.15 ug/ml of pure hypericin (FIG. 3),less than 10%
same,effect on T-type calcium current,T-type calcium channel,inhibited T-type calcium currents in a dose-dependent manner
same,effect on T-type calcium current,T-type calcium channel; listed as Hypericin,dose-dependent inhibitory effect
same,effect on L-type calcium current activity,L-type calcium channels,slight but not significant increase; also recorded: does not significantly affect
